Test results as given in ChEMBL document CHEMBL1201862, “PubChem BioAssay data set” (2004).
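The compound was tested at five concentrations on cells cultured in 96-well plates, with a 48-hour exposure period. GI50 is the concentration that inhibits growth by half.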 Activity calls are given as the source filed them. No stated cut-off is given here; in the data, active = GI50 up to about 1.1 µM and inactive = higher.

Assays:
Assay in all cases: growth of human tumour cells (NCI), 48 h
CAKI-1 = test system: CAKI-1
HCT-116 = test system: HCT-116
HOP-92 = test system: HOP-92
K562 = test system: K562
M14 = test system: M14
RPMI-8226 = test system: RPMI-8226
SF-268 = test system: SF-268
SF-295 = test system: SF-295
SF-539 = test system: SF-539
SK-MEL-5 = test system: SK-MEL-5
SN12C = test system: SN12C
SNB-19 = test system: SNB-19
SNB-75 = test system: SNB-75
SR = test system: SR
SW-620 = test system: SW-620
U-251 = test system: U-251
UACC-62 = test system: UACC-62
HCC 2998 = test system: HCC 2998

Measured: GI50

COC(=O)C(C(=O)C(=O)Nc1ccc(C)cc1C)c1nc2ccc([N+](=O)[O-])cc2nc1O (configuration not stated)
inactive: CAKI-1 > 100 µM | HCT-116 > 100 µM | HOP-92 > 100 µM | K562 78.7 µM | M14 > 100 µM | RPMI-8226 33.8 µM | SF-268 > 100 µM | SF-295 > 100 µM | SF-539 > 100 µM | SK-MEL-5 > 100 µM | SN12C > 100 µM | SNB-19 > 100 µM | SNB-75 > 100 µM | SR > 100 µM | SW-620 > 100 µM | U-251 > 100 µM | UACC-62 > 100 µM

CC(=O)OCC1OC(n2c(=O)[nH]c(=O)c3nn[nH]c32)C(OC(C)=O)C(OC(C)=O)C1OC(C)=O (configuration not stated)
inactive: CAKI-1 > 100 µM | HCC 2998 > 100 µM | HCT-116 > 100 µM | HOP-92 > 100 µM | K562 > 100 µM | M14 > 100 µM | RPMI-8226 > 100 µM | SF-268 > 100 µM | SF-295 > 100 µM | SK-MEL-5 > 100 µM | SN12C > 100 µM | SNB-19 > 100 µM | SNB-75 2.63 µM | SR > 100 µM | SW-620 > 100 µM | U-251 > 100 µM | UACC-62 > 100 µM

O=C(O)C12C3CCC(C3)C1(C(=O)O)C1CCC2C1 (configuration not stated)
inactive: CAKI-1 > 100 µM | HCC 2998 > 100 µM | HCT-116 45.3 µM | HOP-92 > 100 µM | K562 89.7 µM | M14 > 100 µM | RPMI-8226 23.3 µM | SF-268 > 100 µM | SF-295 > 100 µM | SK-MEL-5 > 100 µM | SN12C > 100 µM | SNB-19 > 100 µM | SNB-75 > 100 µM | SR 60.3 µM | SW-620 18.4 µM | UACC-62 > 100 µM

CNC(=O)NCNC(=O)NC
inactive: CAKI-1 > 100 µM | HCC 2998 > 100 µM | HCT-116 > 100 µM | HOP-92 > 100 µM | K562 > 100 µM | M14 > 100 µM | RPMI-8226 > 100 µM | SF-295 > 100 µM | SF-539 > 100 µM | SK-MEL-5 > 100 µM | SNB-75 > 100 µM | SW-620 > 100 µM | U-251 > 100 µM | UACC-62 > 100 µM

COc1cc2ccnc3c2c(c1OC)CC1CC(O)C(OC)CC31 (configuration not stated)
inactive: HCC 2998 42.7 µM | HCT-116 38.7 µM | HOP-92 14.7 µM | K562 47.2 µM | M14 51.8 µM | RPMI-8226 38.3 µM | SF-295 36.6 µM | SF-539 24.4 µM | SK-MEL-5 38.4 µM | SN12C 41.4 µM | SNB-19 99.3 µM | SNB-75 > 100 µM | SR 32 µM | SW-620 33.7 µM | U-251 38 µM | UACC-62 38.5 µM

c1ccc2c(c1)nnn2CNc1ccc(N2CCCCC2)cc1
inactive: HCC 2998 > 100 µM | HCT-116 > 100 µM | HOP-92 > 100 µM | K562 > 100 µM | M14 > 100 µM | RPMI-8226 68.2 µM | SF-268 > 100 µM | SF-295 > 100 µM | SF-539 > 100 µM | SN12C > 100 µM | SNB-19 > 100 µM | SNB-75 > 100 µM | SR 62.7 µM | SW-620 > 100 µM | U-251 > 100 µM | UACC-62 > 100 µM

O=C1C2c3[nH]c4ccccc4c3[C@@H]3CCCCC3C2C(=O)N1c1ccccc1 (some centres not stated)
inactive: HCC 2998 19.3 µM | K562 20.9 µM | M14 15 µM | RPMI-8226 17.5 µM | SF-268 18.7 µM | SF-295 21.1 µM | SF-539 > 10 µM | SK-MEL-5 17.9 µM | SN12C 17.8 µM | SNB-19 36.1 µM | SNB-75 27.2 µM | SR 19.8 µM | SW-620 19.1 µM | U-251 14.4 µM | UACC-62 16.6 µM

ClC(/N=N/c1ccccc1)=N/Nc1ccccc1
inactive: CAKI-1 33.6 µM | HCC 2998 41.8 µM | HCT-116 > 100 µM | HOP-92 > 100 µM | K562 38.3 µM | SF-268 39.2 µM | SF-295 53.8 µM | SF-539 > 100 µM | SN12C > 100 µM | SNB-19 > 100 µM | SR > 100 µM | SW-620 31.8 µM | U-251 > 100 µM

CC1(C)O/C(=C\c2ccccc2)C(=O)/C(=C/c2ccccc2)O1
inactive: CAKI-1 55.3 µM | HCT-116 26.4 µM | HOP-92 29.9 µM | K562 27 µM | M14 34.4 µM | RPMI-8226 16.3 µM | SF-268 57.4 µM | SF-295 44.9 µM | SF-539 67 µM | SK-MEL-5 14.4 µM | SN12C 47.6 µM | SNB-19 47.4 µM | SNB-75 31.6 µM | SR 20.5 µM | SW-620 55.1 µM | U-251 28.4 µM | UACC-62 25.8 µM

CN(C)NC(=O)/C(=C/c1ccc(Cl)cc1)NC(=O)c1ccccc1
inactive: CAKI-1 > 100 µM | HCC 2998 > 100 µM | HCT-116 > 100 µM | HOP-92 > 100 µM | K562 85.3 µM | M14 > 100 µM | RPMI-8226 > 100 µM | SF-268 > 100 µM | SF-295 > 100 µM | SF-539 > 100 µM | SK-MEL-5 > 100 µM | SN12C > 100 µM | SNB-19 > 100 µM | SNB-75 78 µM | SR 39.9 µM | U-251 > 100 µM | UACC-62 > 100 µM

NCCCC(N/C=C1/N=C(c2ccccc2)OC1=O)C(=O)O (configuration not stated)
inactive: HCC 2998 > 100 µM | HCT-116 40.3 µM | HOP-92 > 100 µM | K562 34.4 µM | M14 > 100 µM | RPMI-8226 45.5 µM | SF-268 > 100 µM | SF-295 > 100 µM | SF-539 > 100 µM | SK-MEL-5 > 100 µM | SN12C > 100 µM | SNB-19 > 100 µM | SNB-75 > 100 µM | SR 87.3 µM | SW-620 > 100 µM | U-251 > 100 µM | UACC-62 > 100 µM

Cc1ccc2[nH]c3c4c5ccccc5nc-4c[nH]c3c2c1
inactive: CAKI-1 15.8 µM | HCC 2998 16.1 µM | HCT-116 17.1 µM | K562 12.6 µM | M14 18.2 µM | RPMI-8226 18.1 µM | SF-268 17 µM | SF-295 17.2 µM | SF-539 16.9 µM | SN12C 16.3 µM | SNB-19 17.3 µM | SNB-75 14.9 µM | SW-620 13.7 µM | U-251 14.8 µM | UACC-62 16.4 µM

CCOC(=O)C(=O)Nc1ccc([N+](=O)[O-])cc1C#N
inactive: CAKI-1 > 100 µM | HCC 2998 > 100 µM | HCT-116 > 100 µM | HOP-92 > 100 µM | K562 > 100 µM | M14 > 100 µM | RPMI-8226 > 100 µM | SF-268 > 100 µM | SF-295 > 100 µM | SF-539 > 100 µM | SK-MEL-5 > 100 µM | SN12C > 100 µM | SNB-19 > 100 µM | SR > 100 µM | SW-620 > 100 µM | U-251 > 100 µM | UACC-62 > 100 µM
